What was measured:
[1] = tested on: conscious renal hypertensive dogs; assay: Systolic blood pressure in conscious renal hypertensive dogs (oral, Goldblatt's method); type: in vivo, dog (mongrel); settings: for % systolic pressure variation: Table I; for % Δ (% variation of the S.B.P. over the basal value) / S.B.P. (systolic blood pressure): Table III; for S.B.P. (systolic blood pressure): mean ± SE
Experimental: The experiments herein described which use renal hypertensive dogs are conducted essentially as described in the above cited text.
(§1) More particularly, in the experiments with conscious renal hypertensive dogs, mongrel dogs with two clips on the renal arteries were used according to the Goldblatt's method. The compounds were administered by oral route as powder in gelatine capsules. Systolic blood pressure (SBP) was registered at the tail (indirect method).
^a S.B.P. = Systolic blood pressure. It is determined after oral
administration where three animals were employed for each dose. It is
expressed in mmHg as mean value ± SE.
^b % Δ = % variation of the S.B.P. over the basal value (time
0) at the indicated time after administration.

[2] = tested on: conscious normotensive dogs; assay: Blood pressure in conscious normotensive dogs (oral); type: in vivo, dog (mongrel); settings: for % systolic blood pressure variation: Table II, oral; for Mean systolic blood pressure / % Δ of mean systolic blood pressure: Table V, single oral 20 mg/kg
Experimental: (§2) As for the experiments with conscious normotensive dogs, mongrel dogs with incannulated abdominal aorta or with incannulated abdominal aorta and cardiac left ventricle were used. The compounds were administered by oral route as powder in gelatine capsules. Mean blood pressure (M.B.P.) was registered directly using a Bentley pressure transducer.

[3] = tested on: renal hypertensive dogs; assay: CNS depressant effect and tachycardia during prolonged (7-day) treatment in dogs; type: in vivo, dog; settings: per os 10 mg/kg/die, 7 days
[4] = tested on: mice; assay: "running-fit" test (antagonism of the effects of morphine); type: in vivo, mouse; settings: morphine 60 mg/Kg s.c.
Experimental: This test is conducted essentially as described in the literature.

[5] = Acute toxicity (LD50) in mice; settings: mouse, in vivo
Experimental: The LD50 values of the compounds of the invention are generally higher than 500 mg/kg when given per os and generally higher than 200-300 mg/kg when given intraperitoneally to mice. In particular, the approximate LD50 values for compound 3 in mice were 1000 mg/kg after oral administration and 600 mg/kg after i.p. administration. […] Representative experiments were conducted essentially as described by B. N. Ames, J. McCann., E. Yamasaki, "Methods for detecting carcinogens and mutagens with the salmonella/microsome mutagenicy test" in Mutation Research, 31, 347-364, (1975).

[6] = tested on: mongrel dogs; assay: CNS-depressant activity in mongrel dogs (oral); settings: 100 mg/kg
[7] = tested on: renal hypertensive dogs; assay: Heart rate in renal hypertensive dogs; type: in vivo, dog (mongrel); settings: experiments of Table III, oral
Experimental: as §1

[8] = tested on: conscious normotensive dogs; assay: Myocardial contractility in conscious normotensive dogs; type: in vivo, dog (mongrel); settings: single oral 20 mg/kg; for Myocardial contractility / % Δ of myocardial contractility: Table V
Experimental: as §2
Myocardial contractility was calculated as
1/P·dp/dt ^(max)
The results of this experiment, which was conducted after a single oral administration of 20 mg/kg of the test compound, are summarized below: […]

[9] = tested on: renal hypertensive dogs; assay: Tachiphylaxis experiment: daily oral administration for 7 consecutive days, systolic blood pressure; type: in vivo, dog; settings: for % Δ of S.B.P., peak effect (7h) / S.B.P., basal value / S.B.P., peak effect (7h) / % Δ of S.B.P., basal value: Table IV, 10 mg/kg/die per os
[10] = tested on: mongrel dogs; settings: dog, in vivo
[11] = tested on: Beagle dogs; settings: dog, in vivo, po
[12] = renal hypertensive dogs, oral, 20 mg/kg
[13] = renal hypertensive dogs, oral, 10 mg/kg

## COc1cccc(N2CCN(CCc3nc4ccc5ccccc5c4n3C(C)C)CC2)c1 [Compound 5, 2-[2-[4-(3-methoxyphenyl)-1-piperazinyl]ethyl]-1-(1-methylethyl)-1H-naphth[1,2-d]imidazole]
[1]; [12]
  % systolic pressure variation: -20%

## CC(C)n1c(CCN2CCN(c3ccccc3)CC2)nc2ccc3ccccc3c21 [Compound 1, 2-[2-(4-phenyl-1-piperazinyl)ethyl]-1-(1-methylethyl)-1H-naphth[1,2-d]imidazole]
[2]; 1 mg/kg
  % systolic blood pressure variation: -17%
[2]; 5 mg/kg
  % systolic blood pressure variation: -37%

## CC(C)n1c(CCN2CCN(c3cccc(C(F)(F)F)c3)CC2)nc2ccc3ccccc3c21.O=C(O)CC(O)(CC(=O)O)C(=O)O [Compound 3, 2-[2-[4-(3-trifluoromethylphenyl)-1-piperazinyl]ethyl]-1-(1-methylethyl)-1H-naphth[1,2-d]imidazole, 2-hydroxy-1,2,3-propantricarboxylate]
[3]
  CNS depressant effect during the prolonged treatment: no tachycardia or CNS depressant effect was observed
  tachycardia during the prolonged treatment: no tachycardia
[4]; 30 mg i.p.
  antagonism of morphine in "running-fit" test: inactive
[4]; 60 mg per os
  antagonism of morphine in "running-fit" test: inactive
[1]; Canis lupus familiaris, po, read-out: dose active in reducing the systolic blood pressure
  minimal effective dose: ≤ 5 mg/kg
[1]; [12]
  % systolic pressure variation: -24%
[1]; renal hypertensive dogs, oral, 30 mg/kg
  % systolic pressure variation: -20%
[1]; oral 5 mg/kg, 1 h
  % Δ (% variation of the S.B.P. over the basal value): -3%
  S.B.P. (systolic blood pressure): 205 ± 5 mmHg
[1]; oral 5 mg/kg, 3 h
  % Δ (% variation of the S.B.P. over the basal value): -10%
  S.B.P. (systolic blood pressure): 190 ± 5 mmHg
[1]; oral 5 mg/kg, 5 h
  % Δ (% variation of the S.B.P. over the basal value): -12%
  S.B.P. (systolic blood pressure): 185 ± 7 mmHg
[1]; oral 5 mg/kg, 7 h
  % Δ (% variation of the S.B.P. over the basal value): -10%
  S.B.P. (systolic blood pressure): 190 ± 4 mmHg
[1]; oral 5 mg/kg, time 0 h (basal value), 3 animals
  S.B.P. (systolic blood pressure): 210 ± 7 mmHg
[1]; oral 10 mg/kg, 1 h
  % Δ (% variation of the S.B.P. over the basal value): -8%
  S.B.P. (systolic blood pressure): 190 ± 4 mmHg
[1]; oral 10 mg/kg, 3 h
  % Δ (% variation of the S.B.P. over the basal value): -13%
  S.B.P. (systolic blood pressure): 180 ± 7 mmHg
[1]; oral 10 mg/kg, 5 h
  % Δ (% variation of the S.B.P. over the basal value): -22%
  S.B.P. (systolic blood pressure): 160 ± 10 mmHg
[1]; oral 10 mg/kg, 7 h
  % Δ (% variation of the S.B.P. over the basal value): -18%
  S.B.P. (systolic blood pressure): 170 ± 8 mmHg
[1]; oral 10 mg/kg, time 0 h (basal value)
  S.B.P. (systolic blood pressure): 205 ± 7 mmHg
[1]; oral 20 mg/kg, 1 h
  % Δ (% variation of the S.B.P. over the basal value): -8%
  S.B.P. (systolic blood pressure): 175 ± 7 mmHg
[1]; oral 20 mg/kg, 3 h
  % Δ (% variation of the S.B.P. over the basal value): -14%
  S.B.P. (systolic blood pressure): 165 ± 8 mmHg
[1]; oral 20 mg/kg, 5 h
  % Δ (% variation of the S.B.P. over the basal value): -27%
  S.B.P. (systolic blood pressure): 140 ± 7 mmHg
[1]; oral 20 mg/kg, 7 h
  % Δ (% variation of the S.B.P. over the basal value): -32%
  S.B.P. (systolic blood pressure): 130 ± 7 mmHg
[1]; oral 20 mg/kg, time 0 h (basal value)
  S.B.P. (systolic blood pressure): 190 ± 8 mmHg
[1]; renal hypertensive dogs, oral
  duration of the reduction of the blood pressure: still present seven hours after administration
[5]; ip, intraperitoneal
  LD50: ~600 mg/kg
[5]; po, per os
  LD50: ~1000 mg/kg
[6]
  signs of CNS-depression: slight sedation and very slight motor incoordination
[7]
  heart rate: no increase in the heart rate was observed but only a slight and transient decrease
[2]; 10 mg/kg
  % systolic blood pressure variation: -16%
[2]; 20 mg/kg
  % systolic blood pressure variation: -15%
[2]; 0 min (basal)
  Mean systolic blood pressure: 120 mmHg
[2]; 60 min
  % Δ of mean systolic blood pressure: -0%
  Mean systolic blood pressure: 120 mmHg
[2]; 120 min
  % Δ of mean systolic blood pressure: -12%
  Mean systolic blood pressure: 106 mmHg
[2]; 180 min
  % Δ of mean systolic blood pressure: -15%
  Mean systolic blood pressure: 102 mmHg
[2]; 300 min
  % Δ of mean systolic blood pressure: -17%
  Mean systolic blood pressure: 100 mmHg
[2]; 360 min
  % Δ of mean systolic blood pressure: -12%
  Mean systolic blood pressure: 106 mmHg
[8]; 0 min (basal)
  Myocardial contractility: 48 mmHg sec^-1
[8]; 60 min
  % Δ of myocardial contractility: +10%
  Myocardial contractility: 53 mmHg sec^-1
[8]; 120 min
  % Δ of myocardial contractility: +12%
  Myocardial contractility: 54 mmHg sec^-1
[8]; 180 min
  % Δ of myocardial contractility: +10%
  Myocardial contractility: 53 mmHg sec^-1
[8]; 300 min
  % Δ of myocardial contractility: +12%
  Myocardial contractility: 54 mmHg sec^-1
[8]; 360 min
  % Δ of myocardial contractility: +6%
  Myocardial contractility: 51 mmHg sec^-1
[8]; conscious normotensive dogs
  effect on myocardial contractility (in words): proved not to reduce the myocardial contractility
[9]; day 1 of treatment
  % Δ of S.B.P., peak effect (7h): -20%
  S.B.P., basal value: 210 mmHg
  S.B.P., peak effect (7h): 170 mmHg
[9]; day 3 of treatment
  % Δ of S.B.P., basal value: -5%
  % Δ of S.B.P., peak effect (7h): -20%
  S.B.P., basal value: 200 mmHg
  S.B.P., peak effect (7h): 170 mmHg
[9]; day 5 of treatment
  % Δ of S.B.P., basal value: -12%
  % Δ of S.B.P., peak effect (7h): -24%
  S.B.P., basal value: 185 mmHg
  S.B.P., peak effect (7h): 160 mmHg
[9]; day 7 of treatment
  % Δ of S.B.P., basal value: -15%
  % Δ of S.B.P., peak effect (7h): -29%
  S.B.P., basal value: 180 mmHg
  S.B.P., peak effect (7h): 150 mmHg
[9]; per os daily for 7 consecutive days, 10 mg/kg/die
  tachiphylaxis: proved not to induce tachiphylaxis
[10]
  dose beginning CNS-depressant activity relative to effective antihypertensive dose: at least about ten times higher
[10]; po
  dose at which signs of CNS-depression begin: 100 mg/kg
[11]
  dose at which CNS-depressant effects begin: higher than 100 mg/kg

## CC(C)n1c(CCN2CCN(c3ccc(Cl)cc3)CC2)nc2ccc3ccccc3c21 [Compound 7, 2-[2-[4-(4-chlorophenyl)-1-piperazinyl]ethyl]-1-(1-methylethyl)-1H-naphth[1,2-d]imidazole]
[1]; renal hypertensive dogs, oral, 2 mg/kg
  % systolic pressure variation: -14%
[1]; renal hypertensive dogs, oral, 5 mg/kg
  % systolic pressure variation: -35%

## Cn1c(CCN2CCN(c3ccc(Cl)cc3)CC2)nc2ccc3ccccc3c21 [Compound 4, 2-[2-[4-(4-chlorophenyl)-1-piperazinyl]ethyl]-1-methyl-1H-naphth[1,2-d]imidazole]
[1]; [13]
  % systolic pressure variation: -29%
[1]; [12]
  % systolic pressure variation: -31%

## Cn1c(CCN2CCN(c3cccc(C(F)(F)F)c3)CC2)nc2ccc3ccccc3c21 [Compound 6, 2-[2-[4-(3-trifluoromethylphenyl)-1-piperazinyl]ethyl]-1-methyl-1H-naphth[1,2-d]imidazole]
[1]; [12]
  % systolic pressure variation: -39%

## Cn1c(CCN2CCN(c3ccccc3)CC2)nc2ccc3ccccc3c21 [Compound 2, 2-[2-(4-phenyl-1-piperazinyl)ethyl]-1-methyl-1H-naphth-[1,2-d]imidazole]
[1]; [13]
  % systolic pressure variation: -32%
[2]; 10 mg/kg
  % systolic blood pressure variation: -30%

Reference: patent US4594348A, “Use of some 2-[2-[4-phenyl-1-piperazinyl]ethyl]-1H-naphth-[1,2-D]imidazole derivatives and their pharmaceutically acceptable salts in the treatment of cardiovascular diseases” (Gruppo Lepetit S.p.A., priority 1984, dated 1986)
